Assay results reported in patent US10060934B2, “Methods for screening patients for resistance to angioinhibition, treatment and prophylaxis thereof” (NANOPHARMACEUTICALS LLC, priority 2013, dated 2018).

What was measured:
[1] = tested on: chick chorioallantoic membrane (CAM); experiment: Chick chorioallantoic membrane (CAM) angiogenesis assay; type: in vivo; settings: pro-angiogenic factor alone
Procedure: Examples of the CAM assay methodology may include the step of providing chick embryos. In some embodiments, the chick embryos may be approximately 10 days old. The chick embryos may be incubated at approximately 37° C. with approximately 55% relative humidity. A hypodermic needle may be used to make a small hole in the shell concealing an air sac, and a second hole may be made on the broad side of the egg, directly over an avascular portion of the embryonic membrane. A false air sac may be created beneath the second hole by the application of negative pressure at the first hole, causing the CAM to separate from the shell. A window, approximately 1.0 cm^2, in size may be cut in the shell over the CAM with a small-crafts grinding wheel, allowing direct access to the underlying CAM. In some embodiments, a pro-angiogenic agent may be provided to induce new blood vessel branches on the CAM of 10-day-old embryos. In the exemplary embodiment, the pro-angiogenic agents may be the endogenous non-peptide pro-angiogenic hormones supplied in the patient's blood sample. The patient's blood sample may subsequently be introduced into the xenograft having a vasculature system in the CAM. The pro-angiogenic agent, the blood or serum sample of the patient along with one or more anti-angiogenic agents may be applied to a sterile disk and followed by allowing the disks to dry. In some embodiments of the CAM assay, Sterile disks of No. 1 filter paper (Whatman International) may be pretreated with approximately 3 mg/mL cortisone acetate and 1 mmol/L of the patient's blood or serum, along with one or more anti-angiogenic agents and air dried under sterile conditions. The disks may then be suspended in phosphate buffered saline (PBS) and placed on growing CAMs. At approximately the 24 hour mark, a mitogen-activated protein kinase (MAPK) cascade inhibitor such as PD 98059 may also be added to CAMs topically by means of the filter disks. Exemplary embodiments having one or more anti-angiogenic agent, may include two, three, four, five or more anti-angiogenic agents, including at least one thyroid hormone antagonist such as tetrac, triac, or conjugated tetrac or triac. After incubation at 37° C. with 55% relative humidity for 3 days, the CAM tissue directly beneath each filter disk may be resected and treated. The tissues may subsequently be washed approximately three times with PBS, placed in 35-mm Petri dishes (Nalge Nunc), and examined under a stereomicroscope at approximately 50× magnification or more. Digital images of CAM sections exposed to filters may be collected and quantified using a 3-charge-coupled device color video camera system and analyzed with Image-Pro software (Media Cybernetics) or equivalent software. Embodiments of the CAM system may not only index tumor-related angiogenesis, but permits spherical tumor growth of the implanted cells. Spherical growth may be important to the development of a hypoxic cell population that resemble tumor behavior clinically. Aggressive xenograft behavior in the CAM model may include metastasis to the chick embryo in the system.

[2] = tested on: basic fibroblast growth factor (bFGF, FGF2), vascular endothelial growth factor (VEGF); settings: in the absence of thyroid hormone; cited from earlier work
[3] = target: integrin αvβ3 (Homo sapiens, UniProt P05106+P06756); settings: cited from earlier work
[4] = tested on: glioma cells; settings: in vitro; cited from earlier work
[5] = tested on: human breast cancer cells; settings: in vitro; cited from earlier work

Chain of integrin αvβ3 (P06756 31-889 limits assumed): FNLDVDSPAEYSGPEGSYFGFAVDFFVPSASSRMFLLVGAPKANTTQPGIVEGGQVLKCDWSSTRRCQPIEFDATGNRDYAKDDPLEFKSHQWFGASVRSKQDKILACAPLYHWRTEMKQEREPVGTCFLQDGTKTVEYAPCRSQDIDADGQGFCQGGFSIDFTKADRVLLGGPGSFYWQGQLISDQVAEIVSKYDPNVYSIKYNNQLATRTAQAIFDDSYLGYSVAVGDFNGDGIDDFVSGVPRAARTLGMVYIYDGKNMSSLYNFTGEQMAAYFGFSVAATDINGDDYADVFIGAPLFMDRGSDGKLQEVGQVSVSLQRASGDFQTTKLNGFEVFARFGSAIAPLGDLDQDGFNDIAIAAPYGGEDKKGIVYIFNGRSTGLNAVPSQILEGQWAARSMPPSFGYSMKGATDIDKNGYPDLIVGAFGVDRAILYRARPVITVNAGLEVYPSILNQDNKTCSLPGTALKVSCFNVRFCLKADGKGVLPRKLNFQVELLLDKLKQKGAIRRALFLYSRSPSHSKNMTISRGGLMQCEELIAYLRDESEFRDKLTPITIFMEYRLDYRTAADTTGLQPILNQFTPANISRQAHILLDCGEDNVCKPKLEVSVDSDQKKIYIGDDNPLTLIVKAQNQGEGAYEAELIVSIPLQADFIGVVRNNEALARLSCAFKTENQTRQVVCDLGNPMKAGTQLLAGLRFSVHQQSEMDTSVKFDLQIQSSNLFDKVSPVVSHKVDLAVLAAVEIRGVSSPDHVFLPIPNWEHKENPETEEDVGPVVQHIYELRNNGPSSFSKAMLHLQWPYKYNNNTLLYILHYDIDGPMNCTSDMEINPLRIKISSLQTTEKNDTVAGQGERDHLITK
Chain of integrin αvβ3 (P06756 891-1048 partner limits assumed): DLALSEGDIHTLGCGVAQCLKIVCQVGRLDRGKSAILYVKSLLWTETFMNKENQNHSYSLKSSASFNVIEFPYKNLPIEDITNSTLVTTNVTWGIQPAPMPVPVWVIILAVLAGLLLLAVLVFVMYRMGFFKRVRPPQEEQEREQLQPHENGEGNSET
Chain of integrin αvβ3 (P05106 27-788): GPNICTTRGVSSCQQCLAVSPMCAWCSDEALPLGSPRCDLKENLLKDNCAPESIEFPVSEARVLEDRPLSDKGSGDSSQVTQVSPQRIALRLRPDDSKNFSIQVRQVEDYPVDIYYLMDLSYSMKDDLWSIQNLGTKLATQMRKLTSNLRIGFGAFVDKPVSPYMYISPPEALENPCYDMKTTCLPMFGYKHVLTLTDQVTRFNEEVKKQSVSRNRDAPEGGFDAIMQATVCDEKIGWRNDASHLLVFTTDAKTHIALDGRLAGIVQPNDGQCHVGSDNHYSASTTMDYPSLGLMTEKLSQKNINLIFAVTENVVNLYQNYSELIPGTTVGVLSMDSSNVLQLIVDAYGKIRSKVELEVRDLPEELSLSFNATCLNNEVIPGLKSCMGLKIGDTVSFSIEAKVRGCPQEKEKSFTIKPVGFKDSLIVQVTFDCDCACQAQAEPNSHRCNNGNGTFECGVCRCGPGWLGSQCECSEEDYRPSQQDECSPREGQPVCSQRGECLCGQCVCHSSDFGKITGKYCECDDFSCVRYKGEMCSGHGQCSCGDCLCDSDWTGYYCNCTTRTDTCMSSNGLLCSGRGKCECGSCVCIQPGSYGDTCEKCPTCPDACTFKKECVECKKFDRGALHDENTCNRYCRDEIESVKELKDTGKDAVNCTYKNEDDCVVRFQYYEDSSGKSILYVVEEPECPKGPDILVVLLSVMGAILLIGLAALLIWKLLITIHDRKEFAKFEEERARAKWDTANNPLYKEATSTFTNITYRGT

N[C@@H](Cc1cc(I)c(Oc2ccc(O)c(I)c2)c(I)c1)C(=O)O [T3, 3,5,3′-triiodo-L-thyronine]
Branch points ± SEM [1]: 186.8 ± 16.4

N[C@@H](Cc1cc(I)c(Oc2cc(I)c(O)c(I)c2)c(I)c1)C(=O)O [T4, L-thyroxine]
Branch points ± SEM [1]: 119.2 ± 15.6

Angiotensin II (DRVYIHPF; Angiotensin-2; UniProt P01019 25-32, looked up) [small molecule that supports neovascularization; pro-angiogenic factor in the CAM assay]
Branch points ± SEM [1]: 103.2 ± 25.9

Tetraiodothyroacetic acid [tetrac]
angiogenic activity of bFGF, VEGF and other pro-angiogenic factors [2]: blocks the angiogenic activity | agonist activity at the integrin [3]: no agonist activity | binding of T4 and T3 to the integrin [3]: inhibits binding | growth of glioma cells [4]: arrest growth | growth of human breast cancer cells [5]: arrest growth

VEGF
Branch points ± SEM [1]: 182.4 ± 8.4

bFGF: basic fibroblast growth factor
Branch points ± SEM [1]: 184.6 ± 18.5
